# Experimental data from PubChem BioAssay (NCI).
#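 In this assay, cells in 96-well plates receive the compound at five concentrations for 48 hours. Endpoints are linearly interpolated between the surrounding concentrations. Definition used: TGI = concentration required for complete inhibition of growth.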
# How the values were obtained:
# Test in all cases: NCI tumour cell line growth inhibition, 48 h
# UACC-257 melanoma = system: UACC-257 melanoma
# SK-MEL-2 melanoma = system: SK-MEL-2 melanoma
# ACHN renal = system: ACHN renal
# SK-MEL-28 melanoma = system: SK-MEL-28 melanoma
# OVCAR-8 ovarian = system: OVCAR-8 ovarian
# MDA-N = system: MDA-N
# OVCAR-4 ovarian = system: OVCAR-4 ovarian
# UO-31 renal = system: UO-31 renal
# HOP-92 NSCLC = system: HOP-92 NSCLC
# MDA-MB-435 = system: MDA-MB-435
# SF-295 CNS = system: SF-295 CNS
Compound,TGI (UACC-257 melanoma),TGI (SK-MEL-2 melanoma),TGI (ACHN renal),TGI (SK-MEL-28 melanoma),TGI (OVCAR-8 ovarian),TGI (MDA-N),TGI (OVCAR-4 ovarian),TGI (UO-31 renal),TGI (HOP-92 NSCLC),TGI (MDA-MB-435),TGI (SF-295 CNS)
COc1c(O)cc(/C=C/c2cc(O)cc3c2[C@@]2(C(=O)O3)c3c(O)cc(O)cc3OC2c2cccc(O)c2)cc1O (stereo partly drawn),> 100 µM,> 100 µM,> 100 µM,> 100 µM,> 100 µM,> 100 µM,91 µM,> 100 µM,> 100 µM,> 100 µM,–
N[C@@H]1C[C@H](N)c2c(Cl)sc(Cl)c21,> 100 µM,> 100 µM,> 100 µM,> 100 µM,> 100 µM,> 100 µM,> 100 µM,> 100 µM,> 100 µM,> 100 µM,> 100 µM
O=C(O)CCC(=O)Nc1ccc2c(c1)S(=O)(=O)N(CC(=O)O)C2=O,> 100 µM,> 100 µM,> 100 µM,> 100 µM,> 100 µM,> 100 µM,> 100 µM,> 100 µM,> 100 µM,> 100 µM,> 100 µM
COC(=O)n1c(=O)nc2c3c(ncn21)Oc1c(c(-c2ccccc2)nn1-c1ccccc1)C3c1ccc(Cl)cc1 (stereo not drawn),3.76 µM,3.07 µM,3.21 µM,3.18 µM,–,3.01 µM,4.66 µM,3.28 µM,3.39 µM,3.02 µM,3.04 µM
O=c1nc2n(CCO)c(-c3ccccc3)c(-c3ccccc3)nc-2c(=O)[nH]1,> 100 µM,> 100 µM,> 100 µM,> 100 µM,> 100 µM,> 100 µM,> 100 µM,> 100 µM,> 100 µM,> 100 µM,> 100 µM
COc1ccccc1NC(=O)C(C#N)=C(SC)SC,> 100 µM,> 100 µM,> 100 µM,> 100 µM,–,> 100 µM,> 100 µM,> 100 µM,> 100 µM,> 100 µM,> 100 µM
N#Cc1c(-c2ccccc2)c(C#N)c(=O)n(NS(=O)(=O)c2ccccc2)c1O,> 100 µM,> 100 µM,> 100 µM,> 100 µM,> 100 µM,> 100 µM,> 100 µM,–,> 100 µM,> 100 µM,> 100 µM
Cn1c(=O)nc2n(CCO)c(-c3ccccc3)c(-c3ccccc3)nc-2c1=O,> 100 µM,> 100 µM,> 100 µM,> 100 µM,> 100 µM,> 100 µM,> 100 µM,> 100 µM,> 100 µM,> 100 µM,> 100 µM
CCOc1ccc(C2c3[nH]c4ccccc4c3CCN2C(=O)c2cccs2)cc1 (stereo not drawn),> 100 µM,> 100 µM,> 100 µM,> 100 µM,> 100 µM,> 100 µM,> 100 µM,> 100 µM,> 100 µM,> 100 µM,> 100 µM
CN(C)c1ccc(C(C#N)N2CCCN(C(C#N)c3ccc(N(C)C)cc3)C2c2ccc(N(C)C)cc2)cc1 (stereo not drawn),> 100 µM,> 100 µM,> 100 µM,> 100 µM,> 100 µM,> 100 µM,> 100 µM,> 100 µM,> 100 µM,> 100 µM,> 100 µM
O=C(Nc1ccccc1)N1CCNC1=S,–,> 100 µM,> 100 µM,> 100 µM,> 100 µM,> 100 µM,> 100 µM,> 100 µM,> 100 µM,> 100 µM,> 100 µM
CC(=O)Nc1c(C)cc(OCC(=O)O)cc1C,> 100 µM,> 100 µM,> 100 µM,> 100 µM,> 100 µM,> 100 µM,> 100 µM,> 100 µM,> 100 µM,> 100 µM,> 100 µM
CCOP(=O)(CS(C)=O)O[C@@H]1C[C@H](C)CC[C@H]1C(C)C (stereo partly drawn),18.7 µM,12.8 µM,15.8 µM,> 100 µM,17.4 µM,8.97 µM,> 39.3 µM,7.15 µM,16.9 µM,11.9 µM,18.5 µM
CC[C@@]1(O)C(=O)OCc2c1c(Cl)c1n(c2=O)Cc2cc3ccccc3nc2-1,26.7 µM,52.7 µM,6.05 µM,> 100 µM,22.9 µM,> 100 µM,63.1 µM,9.22 µM,> 70.3 µM,> 100 µM,18 µM
CCOC(=O)CNC(=O)C(CSC(=O)N(O)c1ccc(Br)cc1)NC(=O)CCC(N)C(=O)OCC (stereo not drawn),> 50 µM,> 50 µM,> 50 µM,> 50 µM,> 50 µM,> 50 µM,> 50 µM,> 50 µM,> 50 µM,> 50 µM,> 50 µM
CC(C#N)Nc1ccc(Oc2ccc(C(C)(C)c3ccc(Oc4ccc(NC(C)C#N)cc4)cc3)cc2)cc1 (stereo not drawn),> 100 µM,> 100 µM,> 100 µM,> 100 µM,> 100 µM,> 100 µM,> 100 µM,> 100 µM,> 100 µM,> 100 µM,> 100 µM
COc1ccc(NC=O)c(C(O)CCNC(C)=O)c1 (stereo not drawn),> 100 µM,> 100 µM,> 100 µM,–,> 100 µM,> 100 µM,> 100 µM,> 100 µM,> 100 µM,> 100 µM,> 100 µM
CC(C)=CCC/C(C)=C/Cc1cc(/C=C/c2cc(O)c(CC=C(C)C)c(O)c2)cc(O)c1O,5.2 µM,9.4 µM,3.19 µM,17.5 µM,14.9 µM,12.1 µM,7.1 µM,2.89 µM,15.6 µM,12.2 µM,18.2 µM
Cc1ccc2c(ccc3c[n+]4ccccc4c(C)c32)c1,5.59 µM,11.6 µM,39 µM,11.5 µM,16.2 µM,> 100 µM,10.8 µM,> 100 µM,22.8 µM,17.1 µM,27.2 µM
Cc1ccc(-c2c(C#N)c(-c3ccc(N(C)C)cc3)c(C#N)c(=O)n2NS(=O)(=O)c2ccccc2)cc1,> 100 µM,> 100 µM,> 100 µM,> 100 µM,> 100 µM,> 100 µM,> 100 µM,–,> 100 µM,> 100 µM,> 100 µM
